Consider five molecules from patent US20070066672A1, “Benzimidazole derivatives and use thereof as peptide deformylase inhibitors” (Arpida A/S, priority 2003, published 2007).

The target of experiment [1] is T1, Peptide Deformylase (PDF) (Staphylococcus aureus, UniProt P68826).
T1 construct: made in house
T1 sequence (P68826 1-183): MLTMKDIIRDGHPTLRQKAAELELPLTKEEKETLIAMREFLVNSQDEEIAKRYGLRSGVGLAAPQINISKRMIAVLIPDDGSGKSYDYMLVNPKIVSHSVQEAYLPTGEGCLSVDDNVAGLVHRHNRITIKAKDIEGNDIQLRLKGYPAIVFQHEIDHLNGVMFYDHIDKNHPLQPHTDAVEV
Briefly: Bacterial peptide deformylase (PDF) assay, colorimetric cell free, enzyme from S. aureus. The format is biochemical. The following applies: f-Met-Ala substrate, TNBS detection at 420 nm. The source says:
(§1) To find inhibitors of Peptide Deformylase (PDF), a colorimetric cell free assay for measuring the enzymatic activity of PDF has been adapted to the microtiter plate format (96 wells). The assay comprises three components, purified PDF, f-Met-Ala as substrate and TNBS as the detecting agent of primary amino groups. The resulting TNP_NH-Met-Ala sulfite complex can be detected at 420 nm. PDF enzymes, containing Fe^2+ as the native metal, are purified and are stabilized by the addition of tris(2-carboxyethyl)phosphine (TCEP).
(§2) The IC50 value of a compound of the invention as a bacterial PDF inhibitor was determined using the following assay.
(§3) Assay buffer 0.1 M MOPS pH was adjusted to 7.2 with NaOH, containing 0.25 M NaCl, 100 μg/mL catalase and 1 mg/mL BSA.
(§4) E. coli enzyme (2.5 mg/ml) 10 μl+290 μl Assay buffer, 1 μl per ml enzyme mix. S. aureus (15 mg/ml) 10 μl+990 μl Assay buffer, 0.3 μl per ml enzyme mix.
(§5) Substrate mix: 10 mM f-Met-Ala was made up from 200 mM f-Met-Ala in methanol with assay buffer.
(§6) TNBS solution: Freshly dilute 1 M TNBS stock solution diluted 1:10 with water.
(§7) Buffer C: 0.5 M borate buffer adjusted to pH 9.5 with NaOH.
(§8) Buffer D: 0.2 ml of freshly prepared 0.5 M Na2SO3 was mixed with 9.8 mL of 0.5M NaH2PO4.
(§9) Inhibitor solution: 2 mM Sodium 4-(hydroxymercurio)benzoate in assay buffer.
(§10) Compound mix: Compound of formula I dissolved in DMSO in a 10 mg/mL stock solution. Further dilutions were made in DMSO in the concentration range between 0.05 to 100 mM.
(§11) The assay was performed in a 96 Microtiter plate containing test compound. To each well containing test compound mix was added 75 microliter of enzyme mix from E. coli followed by the addition of 25 microliter of substrate mix. The resulting mix was incubated for 30 minutes at room temperature with shaking. TNBS solution (50 microliter/well) was added and the resulting mixture was incubated for 15 minutes under shaking. Buffer C was then added (20 microliter/well). After incubating at room temperature for 15 minutes under shaking, buffer D was added (50 microliter/well). The optical […] was then measured at 420 nm, thereby determining the IC50 value.
The assay was repeated using enzyme mix from S. aureus.

The target in experiment [2] is T2, Peptide Deformylase (PDF) (Escherichia coli, UniProt P0A6K3).
T2 construct: made in house
T2 sequence (P0A6K3 whole entry): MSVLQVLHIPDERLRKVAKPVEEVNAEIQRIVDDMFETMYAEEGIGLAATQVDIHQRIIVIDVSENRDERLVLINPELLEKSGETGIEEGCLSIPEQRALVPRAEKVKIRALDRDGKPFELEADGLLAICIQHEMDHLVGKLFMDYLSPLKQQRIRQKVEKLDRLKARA
Briefly: Bacterial peptide deformylase (PDF) assay, colorimetric cell free, enzyme from E. coli. The format is biochemical.
From the text: as §1, §2, §3, §4, §5, §6, §7, §8, §9, §10, §11

Molecules are shown by their SMILES.

For the molecule `CCCCn1c(C(Cc2ccccc2)NC(=O)CCC(=O)NO)nc2cc(C(=O)NCC(=O)OC)ccc21` (stereo not shown) [Example 47, ({1-Butyl-2-[1-(3-hydroxycarbamoyl-propionylamino)-2-phenyl-ethyl]-1H-benzoimidazole-5-carbonyl}-amino)-acetic acid methyl ester], the IC50 (usually the concentration at which inhibition is half-maximal) came to 19 nM in experiment [1] and 5300 nM in experiment [2].

As to `COC(=O)CNC(=O)c1ccc2c(c1)nc(C(CCCCN)NC(=O)CCS)n2C1CC1` (stereo not shown) [Example 48, ({2-[5-Amino-1-(3-mercapto-propionylamino)-pentyl]-1-cyclopropyl-1H-benzoimidazole-5-carbonyl}-amino)-acetic acid methyl ester], the results for the IC50 in experiment [1] and in experiment [2] were 2000 nM and 3600 nM, respectively.

For `COC(=O)CNC(=O)c1ccc2c(c1)nc(C(CCCCN)NC(=O)CCS)n2Cc1ccccc1` (stereo not shown) [Example 49, ({2-[5-Amino-1-(3-mercapto-propionylamino)-pentyl]-1-benzyl-1H-benzoimidazole-5-carbonyl}-amino)-acetic acid methyl ester], the concentration for half-maximal inhibition (IC50) in experiment [1] is 2400 nM; in experiment [2], 5200 nM.

`COC(=O)CNC(=O)c1ccc2c(c1)nc(C(Cc1ccccc1)NC(=O)CCS)n2CCN` (stereo not shown) [Example 50, ({1-(2-Amino-ethyl)-2-[1-(3-mercapto-propionylamino)-2-phenyl-ethyl]-1H-benzoimidazole-5-carbonyl}-amino)-acetic acid methyl ester]: the IC50 was 3800 nM in experiment [1] and 7200 nM in experiment [2].

In the case of `COC(=O)CNC(=O)c1ccc2c(c1)nc(C(Cc1ccccc1)NC(=O)CCC(=O)NO)n2CCN` (stereo not shown) [Example 56, ({1-(2-Amino-ethyl)-2-[1-(3-hydroxycarbamoyl-propionylamino)-2-phenyl-ethyl]-1H-benzoimidazole-5-carbonyl}-amino)-acetic acid methyl ester], the IC50 in experiment [1] was 1600 nM; in experiment [2], 2000 nM.
